Values joined by “and” are separate entries in the source; they are usually repeats but may differ in a detail not shown here. Equal entries are not always repeated.

By Log P is commonly meant a log measure of how a compound divides between an organic and an aqueous phase.

The subject of one data set is Balb/c mice. As to the kind of experiment: In vivo acute toxicity. The following applies: for Drug-induced lethality, died/survived (n = 6): 21 days. As to the method:
Finally, we tested the acute toxicity of complex 16 in Balb/c mice after a single bolus i.p. injection of the compound dissolved in saline. […] Animals were monitored for 21 days after injection. […] Mice in these cohorts had normal hair cover; no changes of nutritional behaviour were registered over the entire period of observation. In contrast, doses >80 mg/kg were lethal for individual animals. […] Deaths were registered over the next 1–2 days (Table 5). In each group, the survived animals remained without visible changes for up to 21 days after the injection of 16.
The Balb/c female mice (8–10 weeks old, weight 20–22 g) were bred and hosted at the animal facility of the Blokhin Cancer Center. Mice were kept at 21 ± 1 °C, 50–60% humidity; food and water were added ad libitum. All manipulations were performed in accordance to the European Convention for the Protection of Vertebrate Animals used for Experimental and other Scientific Purposes (ETS 123). Compound 16 was injected i.p.; 70–110 mg/kg single bolus administration in 200 µL of saline. Each cohort contained six mice. Animals were monitored for 21 days after injection. General behavioural activity, nutritional habits, and the integrity of hair cover were the criteria of acute toxicity.

Data set [1] is described as follows: Lipophilicity, shake-flask method water/n-octanol. It is filed as physicochemical. The following applies: UV-vis, mean ± SD. As for the experimental part:
The lipophilicity of complexes 15–20 was studied using a standard shake-flask method in a mixture of water/n-octanol. For the quantification of compounds in the water phase, UV-vis spectrophotometry was used. […] Among other complexes, as expected, 20 was the most lipophilic (Table 1).
N-octanol was saturated with water and with water saturated with n-octanol; mixture400 mL of n-octanol (water) and 100 mL of water (n-octanol) was stirred for 24 h; and then fractions were separated. The sample of the complex was dissolved in n-octanol and a series of solutions in octanol (300, 250, 3 × 200, 150, 100, and 50 μM) was prepared. Absorption spectra were recorded and the calibration curve for maximum absorption was plotted. From 200 μM solutions, the mixtures with water were prepared (1:1, 1:2, 2:1 v/v) and shaken for 15 min. The organic phase was separated by centrifugation. The concentration of the complex in n-octanol was determined from the calibration curve and lipophilicity (logP) was calculated as log P = log [(C0–Caq)/Caq].

Regarding “Na[trans-Ru(DMSO)(C21H19Cl2N5O)Cl4] [Compound 16]”, the “signs of acute toxicity” value with Balb/c mice (110 mg/kg i.p., initial 1–2 h after injection) was “Tremor and dyspnoea”. Besides, the “Drug-induced lethality, died/survived (n = 6)” value in the data set with Balb/c mice (single dose 70 mg/kg i.p., 70 mg/kg) is “no deaths and 0/6 *”; in the data set with Balb/c mice (single dose 80 mg/kg i.p., 80 mg/kg), “no deaths and 0/6”; in the data set with Balb/c mice (single dose 90 mg/kg i.p.) it was 2/6; in the data set with Balb/c mice (single dose 100 mg/kg i.p.) it was 2/6; in the data set with Balb/c mice (single dose 110 mg/kg i.p.), 4/6.
Turning to “Na[trans-Ru(DMSO)(C30H37Cl2N5O)Cl4] [Compound 20]”, in data set [1], the “Log P” value is reported as 1.3 ± 0.2.
